Source: patent publication US12077503B2, “Substituted cyclic amides and their use as herbicides” (FMC CORPORATION, priority 2015, dated 2024)

Key:
Format in all cases: in vivo
Kochia (Kochia scoparia) [1] = experiment: Test A preemergence; details: for Plant response rating, Kochia: 125 g ai/ha
Text: (§1) Seeds of plant species selected from barnyardgrass (Echinochloa crus-galli), Kochia (Kochia scoparia), ragweed (common ragweed, Ambrosia elatior), ryegrass, Italian (Italian ryegrass, Lolium multiflorum), crabgrass, large (Digitaria sanguinalis), giant foxtail (Setaria faberii), green foxtail (Setaria viridis), morningglory (Ipomoea spp.), pigweed (Amaranthus retroflexus), velvetleaf (Abutilon theophrasti), wheat (Triticum aestivum), and corn (Zea mays) were planted into a blend of loam soil and sand and treated preemergence with a directed soil spray using test chemicals formulated in anon-phytotoxic solvent mixture which included a surfactant.
(§2) At the same time, plants selected from these crop and weed species and also blackgrass (Alopecurus myosuroides), and Galium (catchweed bedstraw, Galium aparine) were planted in pots containing the same blend of loam soil and sand and treated with postemergence applications of test chemicals formulated in the same manner. Plants ranged in height from 2 to 10 cm and were in the one- to two-leaf stage for the postemergence treatment. Treated plants and untreated controls were maintained in a greenhouse for approximately 10 d, after which time all treated plants were compared to untreated controls and visually evaluated for injury. Plant response ratings, summarized in Table A, are based on a 0 to 100 scale where 0 is no effect and 100 is complete control. A dash (-) response means no test result.

[2] = tested on: barnyardgrass (Echinochloa crus-galli); experiment: Test A preemergence; details: for Plant response rating, Barnyardgrass: 125 g ai/ha
Text: as §1, §2

[3] = tested on: giant foxtail (Setaria faberii); experiment: Test A preemergence; details: for Plant response rating, Foxtail, Giant: 125 g ai/ha
Text: as §1, §2

[4] = tested on: ragweed (common ragweed, Ambrosia elatior); experiment: Test A preemergence; details: for Plant response rating, Ragweed: 125 g ai/ha
Text: as §1, §2

[5] = tested on: pigweed (Amaranthus retroflexus); experiment: Test A preemergence; details: for Plant response rating, Pigweed: 125 g ai/ha
Text: as §1, §2

[6] = tested on: ryegrass, Italian (Italian ryegrass, Lolium multiflorum); experiment: Test A preemergence; details: for Plant response rating, Ryegrass, Italian: 125 g ai/ha
Text: as §1, §2

[7] = tested on: sedge, umbrella (small-flower umbrella sedge, Cyperus difformis); experiment: Test B flooded paddy test; details: Flood, 250 g ai/ha; 0 to 100 scale where 0 is no effect and 100 is complete control; 13 to 15 d
Description: (§3) Plant species in the flooded paddy test selected from rice (Oryra sativa), sedge, umbrella (small-flower umbrella sedge, Cyperus difformis), ducksalad (Heteranthera limosa), and barnyardgrass (Echinochloa crus-galli) were grown to the 2-leaf stage for testing. At time of treatment, test pots were flooded to 3 cm above the soil surface, treated by application of test compounds directly to the paddy water, and then maintained at that water depth for the duration of the test. Treated plants and controls were maintained in a greenhouse for 13 to 15 d, after which time all species were compared to controls and visually evaluated. Plant response ratings, summarized in Table B, are based on a scale of 0 to 100 where 0 is no effect and 100 is complete control. A dash (-) response means no test result.

[8] = tested on: ducksalad (Heteranthera limosa); experiment: Test B flooded paddy test; details: Flood, 250 g ai/ha; 0 to 100 scale where 0 is no effect and 100 is complete control; 13 to 15 d
Description: as §3

[9] = tested on: barnyardgrass (Echinochloa crus-galli); experiment: Test B flooded paddy test; details: Flood, 250 g ai/ha; 0 to 100 scale where 0 is no effect and 100 is complete control; 13 to 15 d
Description: as §3

rice (Oryra sativa) = experiment: Test B flooded paddy test; details: Flood, 250 g ai/ha; 0 to 100 scale where 0 is no effect and 100 is complete control; 13 to 15 d
Description: as §3

Kochia (Kochia scoparia) [10] = experiment: Test A postemergence
Text: as §1, §2

[11] = tested on: barnyardgrass (Echinochloa crus-galli); experiment: Test A postemergence
Text: as §1, §2

[12] = tested on: blackgrass (Alopecurus myosuroides); experiment: Test A postemergence
Text: as §1, §2

[13] = tested on: giant foxtail (Setaria faberii); experiment: Test A postemergence
Text: as §1, §2

[14] = tested on: ragweed (common ragweed, Ambrosia elatior); experiment: Test A postemergence
Text: as §1, §2

corn (Zea mays) = experiment: Test A postemergence
Text: as §1, §2

[15] = tested on: wheat (Triticum aestivum); experiment: Test A postemergence
Text: as §1, §2

[16] = tested on: pigweed (Amaranthus retroflexus); experiment: Test A postemergence
Text: as §1, §2

[17] = tested on: Galium (catchweed bedstraw, Galium aparine); experiment: Test A postemergence
Text: as §1, §2

[18] = tested on: ryegrass, Italian (Italian ryegrass, Lolium multiflorum); experiment: Test A postemergence
Text: as §1, §2

[19] = Preemergence, visual injury after approximately 10 d, 0 to 100 scale where 0 is no effect and 100 is complete control
[20] = Preemergence, 500 g ai/ha, visual injury approx. 10 d
[21] = 125 g ai/ha, postemergence, visual injury rating on 0 to 100 scale (0 no effect, 100 complete control), approx. 10 d
[22] = Postemergence, 500 g ai/ha, 0 to 100 scale where 0 is no effect and 100 is complete control
[23] = preemergence, 0 to 100 scale (0 no effect, 100 complete control)
[24] = Preemergence, 500 g ai/ha, 0 is no effect, 100 is complete control
[25] = 500 g ai/ha, postemergence, 0 to 100 scale, 0 no effect, 100 complete control
[26] = Postemergence, 125 g ai/ha, visual injury, 0 to 100 scale (0 no effect, 100 complete control), approx. 10 d

Structure (SMILES): C=C(Cl)CN1CC(c2cccc(C(F)(F)F)c2)C(C(=O)Nc2ccccc2F)C1=O (stereo not drawn) [Compound 482]
- Plant response rating, Kochia (Kochia (Kochia scoparia) [1]; [19]): 0
- Kochia plant response rating (0 to 100 scale, 0 is no effect, 100 is complete control) (Kochia (Kochia scoparia) [1]; [20]): 0
- Plant response rating, Barnyardgrass [2, 19]: 0
- Barnyardgrass plant response rating (0 to 100 scale, 0 is no effect, 100 is complete control) [2, 20]: 10
- Plant response rating, Foxtail, Giant [3, 19]: 70
- Foxtail, Giant plant response rating (0 to 100 scale, 0 is no effect, 100 is complete control) [3, 20]: 80
- Plant response rating, Ragweed [4, 19]: 0
- Ragweed plant response rating (0 to 100 scale, 0 is no effect, 100 is complete control) [4, 20]: 0
- Plant response rating, Pigweed [5, 19]: 0
- Pigweed plant response rating (0 to 100 scale, 0 is no effect, 100 is complete control) [5, 20]: 0
- Plant response rating, Ryegrass, Italian [6, 19]: 0
- Ryegrass, Italian plant response rating (0 to 100 scale, 0 is no effect, 100 is complete control) [6, 20]: 0
- Plant response rating, Sedge, Umbrella [7]: 0
- Plant response rating, Ducksalad [8]: 0
- Plant response rating, Barnyardgrass [9]: 0
- Plant response rating, Rice (rice (Oryra sativa)): 0
- Kochia plant response rating (Kochia (Kochia scoparia) [10]; [21]): 0
- Plant response rating, Kochia (Kochia (Kochia scoparia) [10]; [22]): 0
- Barnyardgrass plant response rating [11, 21]: 0
- Plant response rating, Barnyardgrass [11, 22]: 20
- Blackgrass plant response rating [12, 21]: 0
- Plant response rating, Blackgrass [12, 22]: 0
- Foxtail, Giant plant response rating [13, 21]: 0
- Plant response rating, Foxtail, Giant [13, 22]: 20
- Ragweed plant response rating [14, 21]: 0
- Plant response rating, Ragweed [14, 22]: 0
- Corn plant response rating (corn (Zea mays); [21]): 0
- Plant response rating, Corn (corn (Zea mays); [22]): 0
- Wheat plant response rating [15, 21]: 0
- Plant response rating, Wheat [15, 22]: 0
- Pigweed plant response rating [16, 21]: 0
- Plant response rating, Pigweed [16, 22]: 0
- Galium plant response rating [17, 21]: 0
- Plant response rating, Galium [17, 22]: 0
- Ryegrass, Italian plant response rating [18, 21]: 0
- Plant response rating, Ryegrass, Italian [18, 22]: 0

Structure (SMILES): O=C1NCC(c2cccc(F)c2)C1C(=O)Nc1ccccc1C(F)(F)F (racemic) [Compound 376]
- Plant response rating, Kochia (Kochia (Kochia scoparia) [1]; [23]): 0
- Kochia plant response rating (0 to 100 scale) (Kochia (Kochia scoparia) [1]; [24]): 0
- Plant response rating, Barnyardgrass [2, 23]: 90
- Barnyardgrass plant response rating (0 to 100 scale) [2, 24]: 90
- Plant response rating, Foxtail, Giant [3, 23]: 90
- Foxtail, Giant plant response rating (0 to 100 scale) [3, 24]: 90
- Plant response rating, Ragweed [4, 23]: 0
- Ragweed plant response rating (0 to 100 scale) [4, 24]: 0
- Plant response rating, Pigweed [5, 23]: 0
- Pigweed plant response rating (0 to 100 scale) [5, 24]: 0
- Plant response rating, Ryegrass, Italian [6, 23]: 0
- Ryegrass, Italian plant response rating (0 to 100 scale) [6, 24]: 20
- Plant response rating, Sedge, Umbrella [7]: 0
- Plant response rating, Ducksalad [8]: 100
- Plant response rating, Barnyardgrass [9]: 70
- Plant response rating, Rice (rice (Oryra sativa)): 0
- Plant response rating, Kochia (Kochia (Kochia scoparia) [10]; [25]): 20
- Plant response rating, Kochia (Kochia (Kochia scoparia) [10]; [26]): 0
- Plant response rating, Barnyardgrass [11, 25]: 90
- Plant response rating, Barnyardgrass [11, 26]: 90
- Plant response rating, Blackgrass [12, 25]: 40
- Plant response rating, Blackgrass [12, 26]: 0
- Plant response rating, Foxtail, Giant [13, 25]: 90
- Plant response rating, Foxtail, Giant [13, 26]: 90
- Plant response rating, Ragweed [14, 25]: 20
- Plant response rating, Ragweed [14, 26]: 0
- Plant response rating, Corn (corn (Zea mays); [25]): 30
- Plant response rating, Corn (corn (Zea mays); [26]): 0
- Plant response rating, Wheat [15, 25]: 0
- Plant response rating, Wheat [15, 26]: 0
- Plant response rating, Pigweed [16, 25]: 0
- Plant response rating, Pigweed [16, 26]: 0
- Plant response rating, Galium [17, 25]: 30
- Plant response rating, Galium [17, 26]: 30
- Plant response rating, Ryegrass, Italian [18, 25]: 20
- Plant response rating, Ryegrass, Italian [18, 26]: 0
